Results on five compounds are retold here after ChEMBL document CHEMBL6127022, “Acid-sensitive prodrugs; a promising approach for site-specific and targeted drug release” (Eur J Med Chem, 2024).

≈ marks a conversion by molar mass, not a printed value.

In one assay the test system is KB. Kind of assay: Antitumor activity against human KB cells assessed as reduction in cell growth incubated for 96 hrs by MTT assay. It counts as functional, cell-based. (In general: Tetrazolium dyes change colour on reduction, which living cells bring about.)
A further assay relates to HeLa. Kind of assay: cells. The following applies: Homo sapiens, 96 h.
Assay [1] has as its system RAW264.7. Kind of assay: Anti-inflammatory activity in LPS-induced mouse RAW264.7 cells assessed as inhibition of IL-6 production at 10 uM incubated for 24 hrs by qRT-PCR analysis relative to control. It counts as functional. The arrangement: scale not given: the % may be the effect or the level left. A general note: Real-time PCR tracks product formation cycle by cycle.

For assay [2], the system named is RAW264.7. In words: Anti-inflammatory activity in LPS-induced mouse RAW264.7 cells assessed as inhibition of TNF-alpha production at 10 uM incubated for 24 hrs by qRT-PCR analysis relative to control. It counts as functional. The arrangement: scale not given: the % may be the effect or the level left.

Description for HeLa: Anticancer activity against human HeLa cells assessed as inhibition of cell growth incubated for 96 hrs by MTT assay

Regarding `CC(=O)O[C@H]1C(=O)[C@@]2(C)[C@H]([C@H](OC(=O)c3ccccc3)[C@]3(O)C[C@H](OC(=O)[C@H](O)[C@@H](NC(=O)c4ccccc4)c4ccccc4)C(C)=C1C3(C)C)[C@]1(OC(C)=O)CO[C@@H]1C[C@@H]2O` [PACLITAXEL], the IC50 – broadly, the concentration needed to halve the response being measured – turned out to be 0.18 µg/mL (≈ 0.211 µM) with KB and 0.9 µg/mL (≈ 1.05 µM) with HeLa.
In the case of `CN(Cc1cnc2nc(N)nc(N)c2n1)c1ccc(C(=O)N[C@@H](CCC(=O)O)C(=O)O)cc1` [METHOTREXATE], the Activity in the assay on RAW264.7 [1] amounted to 78.5%.
On the same count and under the same terms, the figure for `COc1ccc2cc([C@H](C)C(=O)O)ccc2c1` [NAPROXEN] is 65%.
Turning to `NC(=O)Nc1sc(-c2ccc(F)cc2)cc1C(N)=O`, the Activity in the assay on RAW264.7 [2] came out at 20%.
Consider `CC(C)Cc1ccc(C(C)C(=O)O)cc1` (stereo unspecified) [IBUPROFEN], for which the Activity in the assay on RAW264.7 [2] is on record as 90%.
